ChEMBL document CHEMBL5380834, “Design, Synthesis, and Biological Evaluation of Androgen Receptor (AR) Antagonist-Heat Shock Protein 90 (Hsp90) Inhibitor Conjugates for Targeted Therapy of Castration-Resistant Prostate Cancer” (J Med Chem, 2023)
Active and inactive are the calls of the source. The rule behind the calls is not given here.

How the values were obtained:
[1] = Toxicity in ICR mouse assessed as heart damage at 30 to 50 mg/kg, iv administered every second day for 14 days; format: organism-based; conditions: in vivo, 336 h, dose 30-50 mg/kg, time 14 day
[2] = Toxicity in ICR mouse assessed as animal weight loss at 30 to 50 mg/kg, iv administered every second day for 14 days; format: organism-based; conditions: in vivo, 336 h, dose 30-50 mg/kg, time 14 day
LNCaP [3] = assay: Downregulation of AR-regulated FKBP5 protein level in human LNCaP cells measured for 48 hrs in presence of AR agonist, R1881 in charcoal stripped serum by Western blot analysis; format: functional, cell-based; conditions: dose 300-1000 nM
[4] = target: T1, Androgen receptor (Homo sapiens) (UniProt P10275); assay: Induction of full length AR degradation in human RWPE-1 cells at 10 uM measured for 24 hrs by Western blot analysis; format: cell-based
T1 sequence (whole entry): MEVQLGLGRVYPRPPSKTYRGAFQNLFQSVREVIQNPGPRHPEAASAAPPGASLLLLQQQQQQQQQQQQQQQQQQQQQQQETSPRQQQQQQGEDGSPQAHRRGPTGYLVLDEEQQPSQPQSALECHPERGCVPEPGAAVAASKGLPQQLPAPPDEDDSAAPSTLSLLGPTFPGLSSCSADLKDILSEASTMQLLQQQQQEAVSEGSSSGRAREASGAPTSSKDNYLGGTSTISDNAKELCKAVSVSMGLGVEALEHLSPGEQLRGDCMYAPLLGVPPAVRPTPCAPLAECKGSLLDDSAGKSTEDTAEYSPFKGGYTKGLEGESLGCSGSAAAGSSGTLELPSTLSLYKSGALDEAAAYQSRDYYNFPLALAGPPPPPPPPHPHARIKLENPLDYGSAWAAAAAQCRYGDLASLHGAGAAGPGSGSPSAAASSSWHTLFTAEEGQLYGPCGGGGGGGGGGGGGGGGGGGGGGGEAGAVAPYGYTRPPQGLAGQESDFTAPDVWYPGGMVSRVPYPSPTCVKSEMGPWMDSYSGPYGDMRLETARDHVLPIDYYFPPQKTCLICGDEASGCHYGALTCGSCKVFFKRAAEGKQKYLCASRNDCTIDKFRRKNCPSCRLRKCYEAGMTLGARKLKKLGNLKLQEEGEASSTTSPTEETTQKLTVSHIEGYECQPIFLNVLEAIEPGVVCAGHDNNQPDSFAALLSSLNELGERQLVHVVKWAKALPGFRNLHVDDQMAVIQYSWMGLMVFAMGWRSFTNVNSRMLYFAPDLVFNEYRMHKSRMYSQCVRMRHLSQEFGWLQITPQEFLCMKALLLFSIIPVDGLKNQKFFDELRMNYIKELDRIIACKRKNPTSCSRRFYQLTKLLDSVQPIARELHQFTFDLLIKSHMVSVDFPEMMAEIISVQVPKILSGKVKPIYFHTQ

LNCaP [5] = assay: Antitumor activity against human LNCaP cells xenografted in BALB/c nude mouse assessed as downregulation of AR-FL level at 5 mg/kg, ip administered once every 4th day for 3 weeks and measured at 2 hrs post dose; format: functional, organism-based
LNCaP [6] = assay: Antitumor activity against human LNCaP cells xenografted in BALB/c nude mouse assessed as downregulation of TMPRSS2 level at 5 mg/kg, ip administered once every 4th day for 3 weeks and measured at 2 hrs post dose; format: functional, organism-based
CWR22R [7] = assay: Antitumor activity against human 22Rv1 cells xenografted in BALB/c nude mouse assessed as reduction in tumor growth at 5 mg/kg, ip administered once every 4th day for 3 weeks; format: functional, organism-based
[8] = tested on: Androgen receptor (Homo sapiens), P10275 [UNDEFINED MUTATION]; assay: Induction of AR-V7 degradation in human 22Rv1 cells measured upto 24 hrs by Western blot analysis; format: cell-based; conditions: dose 1000.0 nM
CWR22R [9] = assay: Induction of apoptosis in human 22Rv1 cells assessed as increase in caspase-3 level at 1 uM measured after 48 hrs by Western blot analysis; format: functional, cell-based
[10] = Toxicity in ICR mouse assessed as lung damage at 30 to 50 mg/kg, iv administered every second day for 14 days; format: organism-based; conditions: in vivo, 336 h, dose 30-50 mg/kg, time 14 day
[11] = tested on: Androgen receptor (Homo sapiens), P10275 [UNDEFINED MUTATION]; assay: Induction of AR-V7 degradation in human 22Rv1 cells at 100 nM by Western blot analysis; format: cell-based; conditions: time <= 48.0 hrs, TDE = time-dependent effect
[12] = Biodistribution in BALB/c mouse muscle tissue xenografted with human 22Rv1 cells at 2.5 mg/kg, iv measured at 0.5 to 1 hrs; format: ADME, organism-based, CWR22R; conditions: in vivo, time 0.5-1 hrs
CWR22R [13] = assay: Antitumor activity against human 22Rv1 cells xenografted in BALB/c nude mouse assessed as downregulation of AR-V7 level at 2.5 mg/kg, ip administered once every 4th day for 3 weeks; format: functional, organism-based
[14] = Downregulation of AR-regulated PSA protein level in human LNCaP cells at 300 nM measured for 48 hrs in presence of AR agonist, R1881 in charcoal stripped serum by Western blot analysis relative to control; format: functional
[15] = Biodistribution in BALB/c mouse plasma xenografted with human 22Rv1 cells at 2.5 mg/kg, iv measured at 0.5 to 1 hrs; format: ADME, organism-based, CWR22R; conditions: in vivo, time 0.5-1 hrs
[16] = Biodistribution in BALB/c mouse heart xenografted with human 22Rv1 cells at 2.5 mg/kg, iv measured at 0.5 to 1 hrs; format: ADME, organism-based, CWR22R; conditions: in vivo, time 0.5-1 hrs
LNCaP [17] = assay: Induction of apoptosis in human LNCaP cells assessed as increase in caspase-3 level at 1 uM measured after 48 hrs by Western blot analysis; format: functional, cell-based
[18] = Toxicity in BALB/c nude mouse xenografted with human LNCaP cells assessed as animal weight loss at 2.5 mg/kg, ip administered once every 4th day for 3 weeks; format: organism-based; conditions: in vivo, 504 h
[19] = target: T1, Androgen receptor (Homo sapiens); assay: Induction of full length AR degradation in human LNCaP cells assessed as maximum degradation at 100 nM measured after 12 hrs relative to control; format: cell-based
LNCaP [20] = assay: Antitumor activity against human LNCaP cells xenografted in BALB/c nude mouse assessed as downregulation of FKBP5 level at 5 mg/kg, ip administered once every 4th day for 3 weeks and measured at 2 hrs post dose; format: functional, organism-based
[21] = Toxicity in BALB/c nude mouse xenografted with human LNCaP cells assessed as animal weight loss at 5 mg/kg, ip administered once every 4th day for 3 weeks; format: organism-based; conditions: in vivo, 504 h
[22] = Biodistribution in BALB/c mouse tumor xenografted with human 22Rv1 cells at 2.5 mg/kg, iv measured at 0.5 to 1 hrs; format: ADME, organism-based, Neoplasm, CWR22R; conditions: in vivo, time 0.5-1 hrs
[23] = Biodistribution in BALB/c mouse liver xenografted with human 22Rv1 cells at 2.5 mg/kg, iv measured at 0.5 to 1 hrs; format: ADME, organism-based, CWR22R; conditions: in vivo, time 0.5-1 hrs
[24] = Biodistribution in BALB/c mouse tumor xenografted with human 22Rv1 cells at 2.5 mg/kg, iv measured at 12 hrs; format: ADME, organism-based, Neoplasm, CWR22R; conditions: in vivo
LNCaP [25] = assay: Downregulation of AR-regulated TMPRSS2 protein level in human LNCaP cells measured for 48 hrs in presence of AR agonist, R1881 in charcoal stripped serum by Western blot analysis; format: functional, cell-based; conditions: dose 300-1000 nM
[26] = Downregulation of AR-regulated FKBP5 protein level in human LNCaP cells at 300 nM measured for 48 hrs in presence of AR agonist, R1881 in charcoal stripped serum by Western blot analysis relative to control; format: functional

**Q.** With `CC(C)c1cc(-c2n[nH]c(=O)n2-c2ccc(CN3CCN(CC4CCN(c5ccc(C(=O)N[C@H]6CC[C@H](Oc7ccc(C#N)c(Cl)c7)CC6)nn5)CC4)CC3)cc2)c(O)cc1O` as the compound, how does the Activity [1] read?
**A.** Non-Toxic

**Q.** What about the Activity [2] of the same compound?
**A.** Non-Toxic

**Q.** What about the Activity (LNCaP [3]) of the same compound?
**A.** Dose-Dependent Effect

**Q.** And the Activity [4]?
**A.** inactive

**Q.** What about the Activity (LNCaP [5]) of the same compound?
**A.** Active

**Q.** What about the Activity (LNCaP [6]) of the same compound?
**A.** Active

**Q.** And the Activity (CWR22R [7])?
**A.** Active

**Q.** And the Activity [8]?
**A.** Dose-Dependent Effect

**Q.** What about the Activity (CWR22R [9]) of the same compound?
**A.** Active

**Q.** What about the Activity [10] of the same compound?
**A.** Non-Toxic

**Q.** And the Activity [11]?
**A.** Tde

**Q.** And the Drug uptake [12]?
**A.** Active

**Q.** What about the Activity (CWR22R [13]) of the same compound?
**A.** Active

**Q.** And the Activity [14]?
**A.** >50%

**Q.** And the Drug uptake [15]?
**A.** Active

**Q.** And the Drug uptake [16]?
**A.** Active

**Q.** What about the Activity (LNCaP [17]) of the same compound?
**A.** Active

**Q.** And the Activity [18]?
**A.** 10%

**Q.** What about the Activity [19] of the same compound?
**A.** > 90%

**Q.** What about the Activity (LNCaP [20]) of the same compound?
**A.** Active

**Q.** And the Activity [21]?
**A.** 10%

**Q.** And the Drug uptake [22]?
**A.** Active

**Q.** What about the Drug uptake [23] of the same compound?
**A.** Active

**Q.** And the Drug uptake [24]?
**A.** Active

**Q.** And the Activity (LNCaP [25])?
**A.** Dose-Dependent Effect

**Q.** And the Activity [26]?
**A.** >50%
